Some test systems named below: IGROV1 ovarian; OVCAR-3 ovarian; NCI-H226 lung; SNB-19 CNS; OVCAR-4 ovarian; NCI/ADR-RES ovarian; M14 melanoma; PC-3 prostate; UO-31 renal; T-47D breast; KM12 colon; ACHN renal; NCI-H522 lung; HS 578T breast; MOLT-4 leukemia; MALME-3M melanoma; K-562 leukemia; SW-620 colon; MDA-MB-231 breast; UACC-257 melanoma.
Holding throughout (test): NCI-60 cell line screen, 48 h

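Exposure lasted 48 hours, with cells grown in 96-well plates and compounds tested at five concentrations. TGI is the concentration that stops growth completely.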

On to `Cc1ccc(S(=O)(=O)N/N=C2\CCC3(O)CC2(C)CCC2C3CC2(C)C)cc1` (stereo not given), for which the TGI in the test on IGROV1 ovarian is > 100 µM; with OVCAR-3 ovarian, > 100 µM; in the test with NCI-H226 lung, 89.5 µM; in the test with SNB-19 CNS it was > 100 µM; in the test on OVCAR-4 ovarian, > 100 µM; in the test with NCI/ADR-RES ovarian, > 100 µM. For the same molecule, the TGI is > 100 µM with M14 melanoma; 66.2 µM with PC-3 prostate; 80.3 µM in the test with UO-31 renal; > 100 µM in the test on T-47D breast; > 100 µM in the test on KM12 colon; > 100 µM in the test on ACHN renal. The TGI in the test with NCI-H522 lung is 52.9 µM; in the test on HS 578T breast it was 95.6 µM; in the test with MOLT-4 leukemia it was > 100 µM; in the test on MALME-3M melanoma it was > 100 µM; with K-562 leukemia, > 100 µM; in the test with SW-620 colon it was > 100 µM. Moreover, the TGI with MDA-MB-231 breast and in the test with UACC-257 melanoma was > 100 µM in each case.

Turning to `Cc1ccc(S(=O)(=O)N/N=C2\CCCCCCCCCCC2CN(C)C)cc1` (stereo not given), the TGI with IGROV1 ovarian stood at 30.7 µM; with OVCAR-3 ovarian it was 32.9 µM; in the test on NCI-H226 lung, 35.2 µM; in the test on SNB-19 CNS, 30.4 µM; in the test on OVCAR-4 ovarian it was 68.3 µM; with NCI/ADR-RES ovarian it was 29.3 µM. Further, the TGI turned out to be 31.1 µM in the test with M14 melanoma; 30.3 µM in the test on PC-3 prostate; 21 µM in the test on UO-31 renal; 30.2 µM in the test on T-47D breast; 31.8 µM in the test on KM12 colon; 40.2 µM with ACHN renal. Also, the TGI is 27.4 µM in the test with NCI-H522 lung; 35.6 µM with HS 578T breast; > 100 µM in the test with MOLT-4 leukemia; 30.9 µM in the test on MALME-3M melanoma; 56.5 µM with K-562 leukemia; 31.8 µM in the test with SW-620 colon. For the same molecule, the TGI with MDA-MB-231 breast was found to be 34 µM; in the test on UACC-257 melanoma, 28.7 µM.

Turning to `CCOC(=O)CCC(NC(=O)c1ccc(Oc2nc3c(N)cc(C(F)(F)F)cc3nc2-c2ccccc2)cc1)C(=O)OCC` (stereo not given), the TGI was > 100 µM with IGROV1 ovarian; > 30.9 µM in the test on OVCAR-3 ovarian; > 55.8 µM in the test on NCI-H226 lung; > 80.9 µM in the test with SNB-19 CNS; > 100 µM in the test on OVCAR-4 ovarian; > 100 µM in the test on NCI/ADR-RES ovarian. Also, the TGI was > 100 µM in the test on M14 melanoma; > 79.4 µM in the test with PC-3 prostate; > 100 µM in the test with UO-31 renal; > 100 µM with T-47D breast; > 100 µM with KM12 colon; > 69.6 µM in the test on ACHN renal. Also, the TGI was 45.4 µM with NCI-H522 lung; > 72.8 µM in the test with HS 578T breast; > 100 µM with MOLT-4 leukemia; 91.9 µM with MALME-3M melanoma; > 100 µM in the test on K-562 leukemia; > 100 µM in the test with SW-620 colon. Besides, the TGI is > 96.1 µM in the test with MDA-MB-231 breast and > 31.6 µM in the test with UACC-257 melanoma.

On to `COC1=C2CC(C)CC(OC)C(OC(=O)CN)[C@H](C)/C=C(\C)C(OC(N)=O)C(OC)/C=C\C=C(/C)C(=O)NC(=CC1=O)C2=O` (stereo not given in full), for which the TGI in the test on IGROV1 ovarian came to 1.62 µM; in the test with OVCAR-3 ovarian, 2.98 µM; in the test with NCI-H226 lung, 24.7 µM; with SNB-19 CNS, 20.7 µM; in the test on OVCAR-4 ovarian it was 8.38 µM; in the test on NCI/ADR-RES ovarian it was 27.8 µM. The TGI in the test on M14 melanoma is 10.8 µM; in the test on PC-3 prostate, 13.3 µM; in the test on UO-31 renal it was 11.6 µM; in the test with T-47D breast, 1.32 µM; in the test on KM12 colon, 4.29 µM; with ACHN renal it was 13.4 µM. Further, the TGI with NCI-H522 lung is 1.15 µM; in the test with HS 578T breast, 20.2 µM; with MOLT-4 leukemia, 1.57 µM; with MALME-3M melanoma it was 1.59 µM; in the test on K-562 leukemia it was > 100 µM; in the test with SW-620 colon, 1.25 µM. In addition, the values for the TGI in the test with MDA-MB-231 breast and in the test with UACC-257 melanoma were 1.6 µM and 1.02 µM, respectively.

In the case of `CCOC(=O)/C(C(=S)NCc1ccccc1)=C(/N)N1CCCC1`, the TGI in the test on IGROV1 ovarian, with OVCAR-3 ovarian, with NCI-H226 lung, with SNB-19 CNS, in the test with OVCAR-4 ovarian and in the test on NCI/ADR-RES ovarian was > 100 µM throughout. The TGI with M14 melanoma, with PC-3 prostate, in the test with UO-31 renal, in the test on T-47D breast, in the test on KM12 colon and in the test on ACHN renal was > 100 µM each time. The TGI in the test with NCI-H522 lung, in the test on HS 578T breast, in the test on MOLT-4 leukemia, in the test on MALME-3M melanoma, with K-562 leukemia and in the test on SW-620 colon was > 100 µM throughout. For the same molecule, the TGI in the test with MDA-MB-231 breast and with UACC-257 melanoma was > 100 µM in each case.

With `CCC/C(Cl)=N/OC(NC(=O)OCC)(C(F)(F)F)C(F)(F)F`, the TGI with IGROV1 ovarian is 30.9 µM; in the test with OVCAR-3 ovarian, 29.6 µM; in the test on NCI-H226 lung, > 100 µM; in the test with SNB-19 CNS it was > 100 µM; in the test with OVCAR-4 ovarian, 31.7 µM; with NCI/ADR-RES ovarian, > 100 µM. Also, the TGI was 32.1 µM in the test with M14 melanoma; > 100 µM in the test with PC-3 prostate; 33.8 µM in the test on UO-31 renal; 66.9 µM in the test with T-47D breast; > 100 µM in the test on KM12 colon; 32.3 µM in the test with ACHN renal. Further, the TGI in the test with NCI-H522 lung is > 100 µM; in the test with HS 578T breast it was 77.3 µM; in the test on MOLT-4 leukemia, 71.4 µM; in the test with MALME-3M melanoma, 29.6 µM; in the test on K-562 leukemia, 62.6 µM; with SW-620 colon it was 37.5 µM. The results for the TGI with MDA-MB-231 breast and with UACC-257 melanoma were 31.6 µM and 37.7 µM, respectively.

Source of the values: PubChem BioAssay (NCI).
